Results from patent US20140336109A1, “MODULATION OF GHRELIN LEVELS AND GHRELIN/UNACYLATED GHRELIN RATIO USING UNACYLATED GHRELIN” (Alize Pharma SAS, priority 2011, published 2014).
Where no end group is shown, it is not given here.

What was measured:
[1] = U.S. Pat. Nos. 8,222,217 and 8,318,664; cited from earlier work
T2DM subjects = assay: Side effects and laboratory safety parameters during UAG infusion; assay type: in vivo, human; conditions: during infusions with UAG 3 and 10 μg/kg/hr, 15 hours
Method: A continuous overnight (15 hours) infusion of two doses of UAG (3 μg UAG/kg/hr and 10 μg UAG/kg/hr) versus placebo in a cross-over model on the AG concentrations was performed in eight overweight subjects with type 2 diabetes. FIG. 1 depicts a schematic representation of the study protocol. Glucose and insulin responses to a standard breakfast meal (SBM) in the subjects and reasonable metabolic control were assessed.
Study design—Single-center, investigator initiated, double blind and placebo controlled randomized study. During the first visit medical history, medication use and vital signs of subjects were checked. Blood samples were also taken for chemistry and hematology analysis. […]
Standard breakfast meal (SBM) consisted of: • 3 slices wheat bread; p1 3 portions of margarine; • 2 slices of cheese (48% fat); • 1 portion of jam; • 1 cup of whole milk; and • 1 boiled egg; for a total of 714 kcal (17% proteins; 46% fat; and 37% carbohydrates). […] At each of the 3 visits, the following safety parameters were assessed: hemoglobin, hematocrit, platelet count, WBC count, RBC count, and differential and were determined using Sysmex XE 2100, Firma Sysmex, Ecustraat 11, 4879 NP Etten-Leur. […] Serum glucose levels (using the in-house glucokinase assay) were also assessed every 30 minutes and starting before, and continuing for 4 hours after, the SBM. […]

Sprague-Dawley rats = assay: AG-induced food intake in rats; assay type: in vivo; conditions: rat; i.p. 42 μg/kg + AG 13 μg/kg; 30 min, 1 h, 2 h
Method: With respect to the experimental data presented in FIG. 8, Sprague-Dawley rats of 7 weeks of age, weighing between 275 g and 300 g, were fed a pellet diet ad libitum and were singly housed in plastic cage. The experiment was performed at 2.5 h after the onset of the light cycle in freely fed rats. The rates were i.p. injected simultaneously with vehicle plus vehicle, vehicle+AG (13 μg/kg) or cyclised UAG (6-13) (SEQ ID NO: 25) (42 μg/kg)+AG (13 μg/kg). Immediately after the completion of the i.p. injection in rats, the night-ad-libitum food was removed and replaced by 2 pellets for each animal, previously weighed, placed into the top of the cage. Food intake was calculated as the difference between the food weight before and after the feeding period at each time interval (30 min, 1 h, and 2 h). Cumulative food intake was calculated by summating the values of the different time periods.

| Molecule | activity on glucose, insulin and lipid metabolisms relative to UAG full length [1] | also measured |
| --- | --- | --- |
| His-Gln-Arg-Val (HQRV; listed as Homo sapiens) [UAG (9-12)] | retain the activity of UAG full length | – |
| His-Gln-Arg (HQR; listed as Homo sapiens) [UAG (9-11)] | retain the activity of UAG full length | – |
| SPEHQRVQ [UAG (6-13)] | retain the activity of UAG full length | – |
| EHQRVQ [UAG (8-13)] | retain the activity of UAG full length | – |
| Glu-His-Gln-Arg-Val (EHQRV; listed as Homo sapiens) [UAG (8-12)] | retain the activity of UAG full length | – |
| Glu-His-Gln-Arg (EHQR; listed as Homo sapiens) [UAG (8-11)] | retain the activity of UAG full length | – |
| CC(C)C[C@H](NC(=O)[C@H](CCCCN)NC(=O)[C@H](C)NC(=O)[C@@H]1CCCN1C(=O)[C@@H]1CCCN1C(=O)[C@H](CCCCN)NC(=O)[C@H](CCCCN)NC(=O)[C@H](CO)NC(=O)[C@H](CCC(=O)O)NC(=O)[C@H](CCCCN)NC(=O)[C@H](CCCNC(=N)N)NC(=O)[C@H](CCC(N)=O)NC(=O)[C@H](CCC(N)=O)NC(=O)[C@@H](NC(=O)[C@H](CCCNC(=N)N)NC(=O)[C@H](CCC(N)=O)NC(=O)[C@H](Cc1cnc[nH]1)NC(=O)[C@H](CCC(=O)O)NC(=O)[C@@H]1CCCN1C(=O)[C@H](CO)NC(=O)[C@H](CC(C)C)NC(=O)[C@H](Cc1ccccc1)NC(=O)[C@H](CO)NC(=O)[C@H](CO)NC(=O)CN)C(C)C)C(=O)N[C@@H](CCC(N)=O)C(=O)N1CCC[C@H]1C(=O)N[C@@H](CCCNC(=N)N)C(=O)O [UAG] | – | laboratory evaluations (chemistry or parameters) (T2DM subjects): no significant changes; side effects reported by subjects (T2DM subjects): did not report more side effects than placebo |
| Ser-Pro-Glu-His-Gln-Arg-Val-Gln (cycl) (SPEHQRVQ; also: cyclic, linkage type not given here; listed as Homo sapiens) [cyclic UAG (6-13)] | – | orexigenic effects (food intake) induced by AG (Sprague-Dawley rats): able to counteract the orexigenic effects induced by AG |
